Reference: patent US20080138280A1, “Composition and Methods For Inhibiting Cell Survival” (The Cleveland Clinic Foundation, priority 2003, published 2008)

Key:
IκB kinase (IKK) = IκB kinase (IKK) activity assay with GST-IκBα-(1-54) and [γ32P]ATP; type: cell-based, human; conditions: A375 pretreated with NO-Cbl
Description: FIG. 8 illustrates the assessment of IκB kinase (IKK) activity using recombinant GST-IκBα-(1-54) and [γ^32P]ATP as substrates. The phosphorylated GST fusion protein was detected by autoradiography. IKK activity was determined in A375 cells pretreated with NO-Cbl followed by Apo2L/TRAIL or TNF-α stimulation for 30 minutes and 15 minutes, respectively. […] Anti-β-actin antibody served as the irrelevant antibody with no phosphorylation of GST-IκBα-(1-54) observed.

[1] = test system: phospho-IκBα in A375 cells; test: Western blot analysis of IκBα phosphorylation; type: cell-based, human; conditions: pre-treatment 100 μM
Description: Gel Electrophoresis and Immunoblot analyses. Please see FIG. 4. Whole cell lysates were prepared in 1× lysis buffer (50 mM Tris-Cl, pH 8.0, 1% Triton×100, 10% glycerol, 1 mM EDTA, 250 mM NaCl, 1 mM DTT, 1 mM PMSF, 10 μg/ml aprotinin, 10 μg/ml leupeptin, and 10 μg/ml pepstatin) for subsequent immunoblotting studies. The SDS-PAGE was conducted by using the Laemmli buffer system and 12% polyacrylamide gels. Proteins were transferred onto PVDF membranes by the semidry method (Trans Blot SD, BioRad, Hercules, Calif.). Binding of the primary and secondary antibodies was performed according to standard protocols. Membranes were immunoblotted with pAb to caspase-3, caspase-8, XIAP (BD-Pharmingen, San Diego, Calif.), PARP (BioMOL, Plymouth Meeting, Pa.), cIAP-1, FLIP, pIκBα and IκBα (Cell Signaling, Beverly, Mass.) followed by incubation with HRP conjugated secondary antibodies (Pierce, Rockford, Ill.). Immunoreactive bands were visualized by using enhanced chemiluminescence (Perkin Elmer, Boston, Mass.). Equal protein loading was confirmed by reprobing with monoclonal anti-actin antibody (Sigma Chemicals Co, St. Louis, Mo.). All immunoblots in this study were repeated 3 times with reproducible results.
NO-Cbl treatment affected the phosphorylation state of IκBα, the prototypic inhibitor of NF-κB. Western blot analysis was performed to assess levels of phospho-IκBα and IκBα. FIG. 6 is a Western blot analysis of IκB levels and IκBα phosphorylation. IκBα and phospho-IκBα protein levels were determined in A375 whole cell lysates. […] NO-Cbl, NOC-18, and SNAP pre-treatment all inhibited Apo2L/TRAIL-induced IκBα phosphorylation.

[2] = test system: human hematological and solid tumor cell lines; conditions: cited from earlier work
[3] = test system: NF-κB-luciferase reporter in A375 cells; test: Dual luciferase NF-κB reporter assay; type: cell-based, human
Description: Dual Luciferase NF-κB Reporter Assay. Please see FIG. 6. The NP-κB-luciferase (NF-κB-luc) reporter plasmid, containing a 2×NF-κB response element fused to the luciferase, has been previously characterized. Renilla luciferase (pRL-TK, Promega, Madison, Wis.) vector was used to normalize for transfection efficiency. A375 cells were transfected with 20 μg NF-κB-luc and 10 μg PRL-TK using Lipofectamine plus (Gibco BRL/Life Technologies, Invitrogen Carlsbad, Calif.). After transfection cells were allowed to recover overnight and were plated in 6 well plates. […] Cells were then harvested in 1× passive lysis buffer and luciferase activity was measured according to the manufacturer's protocol (Promega, Madison, Wis.) using a Wallac 1420 multilabel counter (Perkin Elmer, Gaithersburg, Md.). The fold induction of NF-κB-luciferase for each treatment was based on untreated values normalized to the fold induction of pRL-TK reporter values. The assays were performed in triplicate.
Transient transfection assays were performed to assess NF-κB transcriptional activity. A375 cells were co-transfected with a NF-κB-luciferase reporter (NF-κB-luc) and Renilla luciferase (to assess transfection efficiency). Cells were pre-treated with NO-Cbl (100 μM) for 16 h followed by treatment with Apo2L/TRAIL (100 ng/ml) or TNF-α (10 ng/ml) for 4 hours.

IKK activity stimulated with Apo2L/TRAIL (IκB kinase (IKK); Apo2L/TRAIL 30 minutes): inhibited
IKK activity stimulated with TNF-α (IκB kinase (IKK); TNF-α 15 minutes): inhibited
Substance: nitrosylcobalamin [NO-Cbl]
IκBα phosphorylation induced by Apo2L/TRAIL ([1]; Apo2L/TRAIL 100 ng/ml): blocked
IκBα phosphorylation induced by TNF-α ([1]; TNF-α 20 ng/ml): blocked
ID50 lower in tumor cell lines compared to benign cells (fibroblasts and endothelial cells) [2]: 5-100 fold
inhibition of NF-κB activity in response to Apo2L/TRAIL ([3]; NO-Cbl 100 μM 16 h followed by Apo2L/TRAIL 100 ng/ml 4 hours): 34%
inhibition of NF-κB activity in response to TNF-α ([3]; NO-Cbl 100 μM 16 h followed by TNF-α 10 ng/ml 4 hours): 51%
